# Source: patent US6077680A (The University of Florida, dated 2000)
# Tests used:
# [1] = system: pepsin A, pancreatic elastase, subtilisin, trypsin-chymotrypsin, thermolysin
# [2] = system: rat brain membrane K channels (primarily Kv1.2); assay type: binding
# IKCa (hKCa4) = IKCa (hKCa4) (Homo sapiens, UniProt O15554); assay type: cell-based
# [3] = target: Kv1.3 channels in Jurkat T lymphocytes (Homo sapiens, UniProt P22001); assay type: binding
# Kv1.3 [4] = target: T1, Kv1.3 (Mus musculus, UniProt P16390); assay type: cell-based
# T1 sequence (P16390 whole entry): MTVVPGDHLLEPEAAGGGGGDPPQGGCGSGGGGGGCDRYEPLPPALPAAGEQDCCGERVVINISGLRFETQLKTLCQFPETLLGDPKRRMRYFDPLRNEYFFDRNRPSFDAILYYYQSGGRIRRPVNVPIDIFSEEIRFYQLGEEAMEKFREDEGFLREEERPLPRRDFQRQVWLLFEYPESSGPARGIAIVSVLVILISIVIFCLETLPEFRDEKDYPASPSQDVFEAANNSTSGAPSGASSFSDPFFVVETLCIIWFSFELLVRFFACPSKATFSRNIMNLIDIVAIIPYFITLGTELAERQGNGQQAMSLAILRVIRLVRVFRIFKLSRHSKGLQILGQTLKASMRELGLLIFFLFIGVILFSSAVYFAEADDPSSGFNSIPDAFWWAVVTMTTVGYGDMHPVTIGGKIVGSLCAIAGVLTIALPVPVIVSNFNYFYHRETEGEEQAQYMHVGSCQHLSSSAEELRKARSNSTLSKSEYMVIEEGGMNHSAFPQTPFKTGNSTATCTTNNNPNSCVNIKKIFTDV
# Kv1.2 = Kv1.2 (Rattus norvegicus, UniProt P63142); assay type: cell-based
# Chain of Kv1.2 (P63142 whole entry): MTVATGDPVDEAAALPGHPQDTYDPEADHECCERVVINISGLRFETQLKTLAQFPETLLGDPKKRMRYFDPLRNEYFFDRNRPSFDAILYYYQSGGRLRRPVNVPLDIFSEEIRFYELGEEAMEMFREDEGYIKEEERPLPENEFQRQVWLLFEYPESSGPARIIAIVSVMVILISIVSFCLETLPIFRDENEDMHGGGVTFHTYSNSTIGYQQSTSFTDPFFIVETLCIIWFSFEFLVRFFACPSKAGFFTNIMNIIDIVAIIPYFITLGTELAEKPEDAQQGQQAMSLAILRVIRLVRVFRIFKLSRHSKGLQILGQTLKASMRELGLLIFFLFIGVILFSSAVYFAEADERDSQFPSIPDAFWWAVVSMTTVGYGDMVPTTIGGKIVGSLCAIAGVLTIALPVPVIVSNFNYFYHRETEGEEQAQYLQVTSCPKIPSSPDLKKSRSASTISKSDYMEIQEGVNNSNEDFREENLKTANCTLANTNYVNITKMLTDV
# [5] = system: Kv1.1, Kv1.2, Kv1.5, Kv3.1, hKCa4 relative to Kv1.3; assay type: cell-based
# Kv1.5 = Kv1.5 (Homo sapiens, UniProt P22460); assay type: cell-based
# Chain of Kv1.5 (P22460 whole entry): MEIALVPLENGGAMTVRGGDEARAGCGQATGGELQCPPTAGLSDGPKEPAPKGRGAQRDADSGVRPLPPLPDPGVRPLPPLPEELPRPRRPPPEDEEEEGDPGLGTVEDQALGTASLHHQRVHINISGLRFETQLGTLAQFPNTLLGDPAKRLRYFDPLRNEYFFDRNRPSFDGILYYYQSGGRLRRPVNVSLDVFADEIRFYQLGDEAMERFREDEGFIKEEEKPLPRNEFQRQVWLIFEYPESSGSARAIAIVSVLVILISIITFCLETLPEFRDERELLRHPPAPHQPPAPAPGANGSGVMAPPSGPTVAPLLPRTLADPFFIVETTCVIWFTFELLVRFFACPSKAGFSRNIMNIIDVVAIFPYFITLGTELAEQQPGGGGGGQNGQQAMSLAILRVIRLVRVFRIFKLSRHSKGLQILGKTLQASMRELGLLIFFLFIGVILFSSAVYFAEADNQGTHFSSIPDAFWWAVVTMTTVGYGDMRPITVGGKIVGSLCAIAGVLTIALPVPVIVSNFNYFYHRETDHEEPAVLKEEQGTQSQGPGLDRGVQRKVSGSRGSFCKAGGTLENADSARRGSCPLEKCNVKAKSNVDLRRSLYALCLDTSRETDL
# Kv1.3 [6] = target: T1, Kv1.3; assay: cell-based; assay type: cell-based
# Kv3.1 = Kv3.1 (Mus musculus, UniProt P15388); assay type: cell-based
# Chain of Kv3.1 (P15388 whole entry): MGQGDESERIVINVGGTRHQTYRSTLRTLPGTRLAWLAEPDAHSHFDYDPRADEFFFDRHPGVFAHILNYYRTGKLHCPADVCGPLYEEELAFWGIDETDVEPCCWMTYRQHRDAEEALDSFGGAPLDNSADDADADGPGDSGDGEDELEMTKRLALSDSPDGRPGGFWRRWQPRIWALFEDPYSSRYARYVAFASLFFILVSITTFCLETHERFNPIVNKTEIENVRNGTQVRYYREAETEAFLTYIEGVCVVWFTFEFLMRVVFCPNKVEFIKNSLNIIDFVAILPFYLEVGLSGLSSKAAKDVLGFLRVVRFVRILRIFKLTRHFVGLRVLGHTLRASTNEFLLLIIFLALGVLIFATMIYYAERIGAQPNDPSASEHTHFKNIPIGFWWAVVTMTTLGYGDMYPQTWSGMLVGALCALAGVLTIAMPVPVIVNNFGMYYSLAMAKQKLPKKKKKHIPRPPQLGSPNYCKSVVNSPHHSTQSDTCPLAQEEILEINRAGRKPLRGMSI
# Kv1.3(D386→K) = assay type: cell-based
# [7] = target: Kv1.3 potassium channels in Jurkat T lymphocytes (Homo sapiens, UniProt P22001); assay type: cell-based
# Chain of Kv1.3 potassium channels in Jurkat T lymphocytes (P22001 whole entry): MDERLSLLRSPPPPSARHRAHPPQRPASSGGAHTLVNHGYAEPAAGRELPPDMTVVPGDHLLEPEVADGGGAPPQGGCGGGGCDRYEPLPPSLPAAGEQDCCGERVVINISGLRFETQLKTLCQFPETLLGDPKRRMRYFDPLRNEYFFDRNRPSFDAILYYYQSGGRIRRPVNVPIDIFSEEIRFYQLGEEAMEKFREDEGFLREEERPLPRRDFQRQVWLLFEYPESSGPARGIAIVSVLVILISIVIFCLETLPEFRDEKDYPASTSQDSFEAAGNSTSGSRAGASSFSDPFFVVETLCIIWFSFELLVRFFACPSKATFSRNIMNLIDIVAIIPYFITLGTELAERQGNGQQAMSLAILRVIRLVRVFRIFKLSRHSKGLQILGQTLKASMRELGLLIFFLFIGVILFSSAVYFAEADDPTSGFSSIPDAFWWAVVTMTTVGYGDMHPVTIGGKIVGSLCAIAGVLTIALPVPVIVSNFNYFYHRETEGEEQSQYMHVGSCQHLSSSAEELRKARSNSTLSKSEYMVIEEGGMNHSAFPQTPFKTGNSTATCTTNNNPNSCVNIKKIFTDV
# Chain of Kv1.3 channels in Jurkat T lymphocytes (P22001 whole entry): as above
# Chain of IKCa (hKCa4) (O15554 whole entry): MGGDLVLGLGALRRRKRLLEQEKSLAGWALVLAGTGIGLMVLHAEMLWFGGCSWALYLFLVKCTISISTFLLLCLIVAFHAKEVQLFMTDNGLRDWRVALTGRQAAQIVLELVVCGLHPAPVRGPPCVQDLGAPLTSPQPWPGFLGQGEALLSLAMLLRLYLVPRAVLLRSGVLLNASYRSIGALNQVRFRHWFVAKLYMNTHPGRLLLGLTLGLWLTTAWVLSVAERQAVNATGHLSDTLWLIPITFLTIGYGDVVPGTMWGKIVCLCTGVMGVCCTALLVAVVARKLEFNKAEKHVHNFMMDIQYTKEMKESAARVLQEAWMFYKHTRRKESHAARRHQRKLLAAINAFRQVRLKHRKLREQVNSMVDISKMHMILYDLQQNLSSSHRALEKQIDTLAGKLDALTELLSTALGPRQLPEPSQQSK
SMILES,"resistance to proteolysis by porcine pepsin A, pancreatic elastase and subtilisin ([1]; […], 30° C., pH 3.0 (pepsin A), pH 6.5 (elastase, subtilisin))",cleavage by trypsin-chymotrypsin mixture or thermolysin ([1]; pH 6.5),ΔF [2],IC50 ([2]; read-out: IC50 Rat Brain 125I-CTX) [nM],hKCa4 less sensitive than Kv1.3 (IKCa (hKCa4)) [fold],"Hill coefficient, [125I]-ChTX binding [3]","Hill coefficient, Kv1.3 block (Kv1.3 [4])",Kv1.2 less sensitive than Kv1.3 (Kv1.2) [fold],other closely related channels less sensitive than Kv1.3 [5] [fold],"sensitivity of Kv1.5, in words (Kv1.5)",washout from the receptor (Kv1.3 [6]),"sensitivity of Kv3.1, in words (Kv3.1)","ΔΔG (coupling energy), mutant cycle (Kv1.3(D386→K)) [kcal/mol]",Equipotent Molar Ration (Analog IC50 /ShK IC50) Rat brain [2],IC50 Ratio [2],Equipotent Molar Ration (Analog IC50 /ShK IC50) Lymphocyte [7],reduction of affinity (IC50) for Kv1.3 relative to ShK toxin [7]
CC[C@H](C)[C@@H]1NC(=O)[C@@H](NC(=O)[C@H](CO)NC(=O)[C@@H](N)CCCNC(=N)N)CSSC[C@@H](C(=O)O)NC(=O)[C@H]([C@@H](C)O)NC(=O)CNC(=O)[C@@H]2CSSC[C@@H]3NC(=O)[C@H](CCC(N)=O)NC(=O)[C@H](Cc4ccccc4)NC(=O)[C@H](C)NC(=O)[C@H]([C@@H](C)O)NC(=O)[C@H](CSSC[C@H](NC(=O)[C@H](Cc4ccccc4)NC(=O)[C@H](CO)NC(=O)[C@H](CC(C)C)NC(=O)[C@H](CCCNC(=N)N)NC(=O)[C@H](Cc4ccc(O)cc4)NC(=O)[C@H](CCCCN)NC(=O)[C@H](CCSC)NC(=O)[C@H](CO)NC(=O)[C@H](Cc4cnc[nH]4)NC(=O)[C@H](CCCCN)NC3=O)C(=O)N[C@@H](CCCNC(=N)N)C(=O)N[C@@H](CCCCN)C(=O)N[C@@H]([C@@H](C)O)C(=O)N2)NC(=O)[C@H](CCCNC(=N)N)NC(=O)[C@H](CO)NC(=O)[C@H](CCCCN)NC(=O)[C@@H]2CCCN2C(=O)[C@H]([C@@H](C)CC)NC(=O)[C@H]([C@@H](C)O)NC(=O)[C@H](CC(=O)O)NC1=O [ShK],completely resistant to proteolysis,readily cleaved,0.0,8,100,0.89±0.17,close to unity,100,> 100,resistant to the peptide,binds almost irreversibly,resistant to the peptide,–,–,–,–,–
CCCC[C@@H]1NC(=O)[C@H](CCSC)NC(=O)[C@H](CO)NC(=O)[C@H](Cc2c[nH]cn2)NC(=O)[C@H](CCCCN)NC(=O)[C@@H]2CSSC[C@@H]3NC(=O)[C@H]([C@@H](C)O)NC(=O)[C@H](CCCCN)NC(=O)[C@H](CCCNC(=N)N)NC(=O)[C@H](CSSC[C@H](NC(=O)[C@H](CCCNC(=N)N)NC(=O)[C@H](CO)NC(=O)[C@H](CCCCN)NC(=O)[C@@H]4CCCN4C(=O)[C@H]([C@@H](C)CC)NC(=O)[C@H]([C@@H](C)O)NC(=O)[C@H](CC(=O)O)NC(=O)[C@H]([C@@H](C)CC)NC(=O)[C@@H](NC(=O)[C@H](CO)NC(=O)[C@@H](N)CCCNC(=N)N)CSSC[C@@H](C(=O)O)NC(=O)[C@H]([C@@H](C)O)NC(=O)CNC3=O)C(=O)N[C@@H]([C@@H](C)O)C(=O)N[C@@H](C)C(=O)N[C@@H](Cc3ccccc3)C(=O)N[C@@H](CCC(N)=O)C(=O)N2)NC(=O)[C@H](Cc2ccccc2)NC(=O)[C@H](CO)NC(=O)[C@H](CC(C)C)NC(=O)[C@H](CCCNC(=N)N)NC(=O)[C@H](Cc2ccc(O)cc2)NC1=O [K22Nle],–,–,> 3.23,–,–,–,–,–,–,–,–,–,0.053,> 250,> 250,> 23,more than 23 fold
